Measurements as given in patent publication US20070161696A1, “Methods of using and compositions comprising selective cytokine inhibitory drugs for treatment, modification and management of pain” (priority 2004, published 2007).

Key:
TNF-α production = experiment: Inhibition of TNF-α production following LPS-stimulation of human PBMC and human whole blood, in vitro; format: cell-based; settings: in vitro studies; compared with thalidomide
Method: In a specific embodiment, the pharmacological properties of 3-(3,4-dimethoxy-phenyl)-3-(1-oxo-1,3-dihydro-isoindol-2-yl)-propionamide are characterized in in vitro studies. Studies examine the effects of the compound on the production of various cytokines. Inhibition of TNF-α production following LPS-stimulation of human PBMC and human whole blood by the compound is investigated in vitro. The IC50's of the compound for inhibiting production of TNF-α are measured. […] The pharmacological effects of 3-(3,4-dimethoxy-phenyl)-3-(1-oxo-1,3-dihydro-isoindol-2-yl)-propionamide may derive from its action as an inhibitor of the generation of inflammatory cytokines.

[1] = Cardiovascular and respiratory function in anesthetized dogs; format: in vivo; settings: anesthetized Beagle dogs; ascending doses 400, 800 and 1,200 mg/kg/day by infusion through the jugular vein; compared to vehicle control group
Method: The effects of 3-(3,4-dimethoxy-phenyl)-3-(1-oxo-1,3-dihydro-isoindol-2-yl)-propionamide on cardiovascular and respiratory function are investigated in anesthetized dogs. Two groups of Beagle dogs (2/sex/group) are used. One group receives three doses of vehicle only and the other receives three ascending doses of 3-(3,4-dimethoxy-phenyl)-3-(1-oxo-1,3-dihydro-isoindol-2-yl)-propionamide (400, 800, and 1,200 mg/kg/day). In all cases, doses of 3-(3,4-dimethoxy-phenyl)-3-(1-oxo-1,3-dihydro-isoindol-2-yl)-propionamide or vehicle are successively administered via infusion through the jugular vein separated by intervals of at least 30 minutes.
The cardiovascular and respiratory changes induced by 3-(3,4-dimethoxy-phenyl)-3-(1-oxo-1,3-dihydro-isoindol-2-yl)-propionamide are minimal at all doses when compared to the vehicle control group. 5.3 Studies Using Animal Pain Models

[2] = Clinical study in pain patients with upper extremity CRPS; format: in vivo, human; settings: 1,200 mg as a continuous oral daily dose
Method: Selective cytokine inhibitory drugs of the invention such as 3-(3,4-dimethoxy-phenyl)-3-(1-oxo-1,3-dihydro-isoindol-2-yl)-propionamide are administered in an amount of 400 to 1,200 mg per day to patients with pain syndromes for three to six months. A baseline evaluation is performed for the effect of the drug treatment on pain intensity, impact of pain on activities of daily living, and consumption of other pain medications.
In a specific embodiment, clinical studies are performed in pain patients who have upper extremity CRPS that has not responded to conventional physical therapy and has been present for at least one year. In the early course of their diseases, patients have clear evidence of autonomic dysfunction with formal autonomic testing (Quantitative sudomotor axon reflex test (QSART), resting sweat output, and thermography). If this is unavailable, documentation of clinical signs indicates autonomic dysfunction (changes in hydration, temperature, skin, nail or hair growth) along with symptoms of allodynia and swelling. […] Responses are assessed using standard pain scales, e.g., Numeric Pain Scale Assessment (VAS) for pain, quality of life using the McGill Index and objective signs in clinical examination such as a visible reduction of swelling, sweating, discolorations in skin color, temperature changes, changes in skin, hair and nail growth, and fine motor movements. […]

## COc1ccc(C(CC(N)=O)N2Cc3ccccc3C2=O)cc1OC (stereo not drawn) [3-(3,4-Dimethoxy-phenyl)-3-(1-oxo-1,3-dihydro-isoindol-2-yl)-propionamide]
TNF-α production
  pharmacological activity profile, potency relative to thalidomide: five to fifty times more potent than thalidomide
[1]
  cardiovascular and respiratory changes: minimal
[2]
  tolerability: well-tolerated
